Experimental data reported in patent US10457709B2, “Antimicrobial peptides, their variants and uses” (priority 2015, dated 2019).
≈ marks a conversion by molar mass, not a printed value. Ends that are not written are not given here.

What was measured:
[1] = test system: Candida albicans clinical strains; test: MIC, clinical yeast strains; type: cell-based; parameters: unit: μg/ml
Method: (§1) Minimum inhibition concentrations (MICs) were determined against Escherichia coli (ATCC 25922), Staphylococcus aureus (ATCC 25923), Klebsiella pneumoniae (ATCC 10031) and Pseudomonas aeruginosa (ATCC 27853). Also clinical strains of E. coli, K. pneumoniae, E. cloacae, P. aeruginosa, Serratia marcescens, Proteus mirabilis, S. pneumoniae, Acinetobacter baumannii, A. johnsonii and S. aureus were used for MICs assays. Additionally, clinical strains of yeast including Candida albicans, C. glabrata, C. parapsilosis and C. quillermondiae were used. The susceptibility of these microorganisms to Chain peptides were determined using micro broth dilution assay. Colonies of the respective microorganism from Muller Hinton (MH) agar plates incubated overnight were suspended in MH broth media and final concentration of microorganism was adjusted to 5.0×10^5 cfu/ml. An aliquot of 10 μl of each Chain peptide, or gentamicin, tetracycline as reference antibiotics were added in differing concentrations along with 90 μl of bacterial suspension to 96 well polypropylene plates and incubated at 37° C. for 20 to 24 hours. Concentrations of Chain peptides and reference antibiotics ranged from 0.125 to 128 μg/ml and the MICs were recorded as the lowest concentration with no visual growth of bacteria. Similarly, antifungal MICs were tested in Potato dextrose broth.
(§2) Clinical strains of yeasts including Candida albicans, C. glabrata, C. parapsilosis and C. quillermondiae were also tested with the 12 Chain peptides. The minimum inhibitory concentration (MICs) varied between these peptides and are presented in Tables 4a, 4b, 4c and 5a, 5b, 5c. Peptides Chain 105, 201 and 308 are broad spectrum antimicrobials with MICs between 0.5-32 μg/ml against all the bacteria and yeasts tested, except Serratia marcescens and Proteus mirabilis, against which the MICs were between 64-128 μg/ml. Peptide Chain 306 has narrow spectrum activity against E. coli at 1 μg/ml and for the rest of the bacterial strains at >32 μg/ml (FIG. 10c).

[2] = test system: C. glabrata clinical strains; test: MIC, clinical yeast strains; type: cell-based, Candida glabrata; parameters: unit: µg/ml
Method: as §1, §2

[3] = test system: C. parapsilosis clinical strains; test: MIC, clinical yeast strains; type: cell-based, Candida parapsilosis; parameters: unit: µg/ml
Method: as §1, §2

[4] = test system: C. quillermondiae clinical strains; test: MIC, clinical yeast strains; type: cell-based, Candida quillermondiae; parameters: unit: μg/ml; details: C. quillermondiae clinical yeast strain 1
Method: as §1, §2

[5] = test system: Escherichia coli (ATCC 25922); test: microbe, parasite or virus in culture; type: cell-based
Method: as §1

[6] = test system: Klebsiella pneumoniae (ATCC 10031); test: microbe, parasite or virus in culture; type: cell-based
Method: as §1

[7] = test system: Pseudomonas aeruginosa (ATCC 27853); test: microbe, parasite or virus in culture; type: cell-based
Method: as §1

[8] = test system: Staphylococcus aureus (ATCC 25923); test: microbe, parasite or virus in culture; type: cell-based
Method: as §1

Molecule	Minimum inhibitory concentration, Escherichia coli (ATCC 25922) [5] [µg/mL]	Minimum inhibitory concentration, Klebsiella pneumoniae (ATCC 10031) [6] [µg/mL]	Minimum inhibitory concentration, Pseudomonas aeruginosa (ATCC 27853) [7] [µg/mL]	Minimum inhibitory concentration, Staphylococcus aureus (ATCC 25923) [8] [µg/mL]	also measured
C[C@@H]1[C@H](O)[C@@H](C)/C=C/C=C/C=C/C=C/C=C/C=C/C=C/[C@H](O[C@@H]2O[C@H](C)[C@@H](O)[C@H](N)[C@@H]2O)C[C@@H]2O[C@](O)(C[C@@H](O)C[C@@H](O)[C@H](O)CC[C@@H](O)C[C@@H](O)CC(=O)O[C@H]1C)C[C@H](O)[C@H]2C(=O)O [Amphotericin B]	–	–	–	–	Minimum inhibitory concentration ([1]; Candida albicans clinical yeast strain 1): 2; Minimum inhibitory concentration ([1]; Candida albicans clinical yeast strain 2): 0.5; Minimum inhibitory concentration ([1]; Candida albicans clinical yeast strain 3): 2; Minimum inhibitory concentration ([1]; Candida albicans clinical yeast strain 4): 2; Minimum inhibitory concentration ([1]; Candida albicans clinical yeast strain 5): 2; Minimum inhibitory concentration ([2]; C. glabrata clinical yeast strain 1): 4; Minimum inhibitory concentration ([2]; C. glabrata clinical yeast strain 2): 4; Minimum inhibitory concentration ([2]; C. glabrata clinical yeast strain 3): 2; Minimum inhibitory concentration ([2]; C. glabrata clinical yeast strain 4): 4; Minimum inhibitory concentration ([3]; C. parapsilosis clinical yeast strain 1): 2; Minimum inhibitory concentration ([3]; C. parapsilosis clinical yeast strain 2): 2; Minimum inhibitory concentration ([3]; C. parapsilosis clinical yeast strain 3): 2; Minimum inhibitory concentration ([3]; C. parapsilosis clinical yeast strain 4): 2; Minimum inhibitory concentration [4]: 2
CN(C)[C@@H]1C(O)=C(C(N)=O)C(=O)[C@@]2(O)C(O)=C3C(=O)c4c(O)cccc4[C@@](C)(O)[C@H]3C[C@@H]12 [Tetracycline, reference compound]	–	–	–	–	MIC ([5]; Escherichia coli, ATCC25922, read-out: Minimum inhibitory concentration, Escherichia coli (ATCC 25922)): 8 µg/mL (≈ 18 µM); MIC ([6]; Klebsiella pneumoniae, ATCC10031, read-out: Minimum inhibitory concentration, Klebsiella pneumoniae (ATCC 10031)): 2 µg/mL (≈ 4.5 µM); MIC ([7]; Pseudomonas aeruginosa, ATCC27853, read-out: Minimum inhibitory concentration, Pseudomonas aeruginosa (ATCC 27853)): 32 µg/mL (≈ 72 µM); MIC ([8]; Staphylococcus aureus, ATCC25923, read-out: Minimum inhibitory concentration, Staphylococcus aureus (ATCC 25923)): 2 µg/mL (≈ 4.5 µM)
DCWSAMIRLHAKYNQV [Chain100]	>128	>128	>128	>128	–
IIKRFRLFKKL [Chain301]	64	>128	64	>128	–
ILKRWWLFKKL [Chain302]	>128	>128	16	128	–
IWKRFRLFKKR [Chain303]	64	>128	>128	>128	–
IWKRFRLFKKW [Chain304]	16	64	8	32	–
KIRLHRKRLRK [Chain101]	>128	>128	>128	>128	–
KKRLHRKRLRK [Chain102]	>128	>128	>128	>128	–
KLKKFKLFKKR [Chain312]	>128	>128	>128	>128	–
KLKWFWLFKKR [Chain311]	16	32	8	32	–
KLRLHAKRLRK [Chain103]	>128	>128	>128	>128	–
KRIVRWRKLKRK [Chain207]	>128	>128	>128	>128	–
KRIVRWRTRKR [Chain205]	64	>128	>128	>128	–
KRIVRWRWRKR [Chain206]	16	>128	>128	>128	–
RKIVKKRTFKR [Chain202]	>128	>128	1	>128	–
RLKRFRLFRKRK [Chain313]	32	>128	64	>128	–
RLKWFWLRKLK [Chain305]	128	64	16	64	–
RRIVKLRWFKR [Chain203]	32	>128	>128	>128	–
WIRLHWKRLRK [Chain106]	>128	>128	64	>128	–
WRILRWRKLKR [Chain208]	32	>128	32	>128	–
WRIVQWRKLKR [Chain210]	>128	>128	>128	>128	–
WRIVRWRKLKR [Chain209]	64	>128	>128	>128	–
WRKWFWLFKKR [Chain309]	32	64	8	32	–
WWRLHAKKKLW [Chain107]	64	>128	>128	>128	–
WWRLHAKRKLW [Chain108]	>128	>128	>128	>128	–
YDKGFGLFKKM [Chain300]	>128	>128	>128	>128	–
